Results: patent publication US7939550B2, “Aminopyrazole derivatives, process for the preparation thereof, and composition for preventing or treating ischemic diseases containing the same” (Korea Research Institute of Chemical Technology, priority 2006, dated 2011)

Tested on: Cardiomyocyte cell line H9c2 cells
Assay: Inhibitory effect on ischemic cell death (chemical hypoxia, DAPI staining)
Format: cell-based
Conditions: Rattus norvegicus, derivative 10 μM in DMSO, 30 min pretreatment, then chemical hypoxia solution 1 to 2 hours, DAPI stain, fluorescence microscope, DMSO control 25.86385, read-out: Apoptosis (%)
Method: The aminopyrazole derivatives of the present invention were examined for ischemic cell death inhibitory effect in cells according to the following procedure.
Cardiomyocyte cell line H9c2 cells were cultured in DMEM (Dulbecco's modified Eagle's medium) supplemented with 10% fetal bovine serum and 1% penicillin/streptomycin (100× solution). The cells were grown in 35 mm dishes such that the number thereof becomes 1×10^4, and cultured at 37° C. for 48 hours in a CO2 incubator. The cells were treated with 0.1% DMSO only (control), or the solutions dissolving the derivatives of Examples 1 to 30 (10 μM) in DMSO respectively. After 30 minutes, the cells were washed with PBS, and continuously treated with the DMSO solution (control) or the above solutions dissolving the derivatives together with chemical hypoxia solution (106 mM NaCl, 4.4 mM KCl, 1 mM MgCl2, 38 mM NaHCO3, 2.5 mM CaCl2, 20 mM 2-deoxy glucose, 1 mM NaCN) for 1 to 2 hours, while evaluating the cell damage by microscope. At the time when the sufficient damage were observed, the cells were washed with 1 ml of PBS twice, and then treated to fix with 1 ml of 3.7% formaldehyde. The cells obtained were washed with 1 ml of PBS again, stained with DAPI, and then washed with 1 ml of PBS in three times. The cell death of the cells was observed by a fluorescence microscope, and the degree of the observed cell death was converted to percentages.

SMILES	cytotoxicity at 10 µM
CCOC(=O)c1cnn(CCc2ccccc2)c1NC(=O)CSc1ccc(Br)cc1 [Example 19, 5-[2-(4-bromo-phenylsulfanyl)-acetylamino]-1-phenethyl-1H-pyrazole-4-carboxylic acid ethyl ester]	8.19%
O=C(CSc1ccc(Br)cc1)Nc1cn(CCc2ccccc2)nc1C(=O)O [Example 23, 4-[2-(4-bromo-phenylsulfanyl)-acetylamino]-1-phenethyl-1H-pyrazole-3-carboxylic acid]	7.76%
COC(=O)c1cc(NC(=O)CSc2ccc(Br)cc2)n(C)n1 [Example 21, 5-[2-(4-bromo-phenylsulfanyl)-acetylamino]-1-methyl-1H-pyrazole-3-carboxylic acid methyl ester]	8.33%
COC(=O)c1nn(CCc2ccccc2)cc1NC(=O)CSc1ccccc1 [Example 2, 4-[2-(phenylsulfanyl)-acetylamino]-1-phenethyl-1H-pyrazole-3-carboxylic acid methyl ester]	11%
COC(=O)c1nn(Cc2ccccc2)cc1NC(=O)CSc1ccc(Br)cc1 [Example 12, 4-[2-(4-bromo-phenylsulfanyl)-acetylamino]-1-benzyl-1H-pyrazole-3-carboxylic acid methyl ester]	11.5%
COC(=O)c1nn(CCc2ccccc2)cc1NC(=O)CSc1ccc([N+](=O)[O-])cc1 [Example 4, 4-[2-(4-nitro-phenylsulfanyl)-acetylamino]-1-phenethyl-1H-pyrazole-3-carboxylic acid methyl ester]	3.74%
COC(=O)c1c(NC(=O)CSc2ccc(Br)cc2)cnn1C [Example 17, 4-[2-(4-bromo-phenylsulfanyl)-acetylamino]-2-methyl-2H-pyrazole-3-carboxylic acid methyl ester]	13.9%
COC(=O)c1nn(C)cc1NC(=O)CSc1ccc(Br)cc1 [Example 14, 4-[2-(4-bromo-phenylsulfanyl)-acetylamino]-1-methyl-1H-pyrazole-3-carboxylic acid methyl ester]	13.3%
COC(=O)c1nn(CCc2ccccc2)cc1NC(=O)CSc1ccc(C)c(C)c1 [Example 11, 4-[2-(3,4-dimethyl-phenylsulfanyl)-acetylamino]-1-phenethyl-1H-pyrazole-3-carboxylic acid methyl ester]	15.7%
COC(=O)c1c(NC(=O)CSc2ccc(Br)cc2)cnn1CCc1ccccc1 [Example 16, 4-[2-(4-bromo-phenylsulfanyl)-acetylamino]-2-phenethyl-2H-pyrazole-3-carboxylic acid methyl ester]	10.8%
COC(=O)c1nn(CCc2ccccc2)cc1NC(=O)C[S+]([O-])c1ccccn1 (stereo not drawn) [Example 9, 4-[2-(2-pyridylsulfinyl)-acetylamino]-1-phenethyl-1H-pyrazole-3-carboxylic acid methyl ester]	3.74%
COC(=O)c1nn(CCc2ccccc2)cc1NC(=O)CS(=O)(=O)c1ccccn1 [Example 10, 4-[2-(2-pyridylsulfonyl)-acetylamino]-1-phenethyl-1H-pyrazole-3-carboxylic acid methyl ester]	7.27%
COC(=O)c1nn(CCc2ccccc2)cc1NC(=O)CSc1cccc(OC)c1 [Example 3, 4-[2-(3-methoxy-phenylsulfanyl)-acetylamino]-1-phenethyl-1H-pyrazole-3-carboxylic acid methyl ester]	8.26%
COC(=O)c1nn(CCc2ccccc2)cc1NC(=O)CSc1ccc(C)cc1 [Example 6, 4-[2-(4-methyl-phenylsulfanyl)-acetylamino]-1-phenethyl-1H-pyrazole-3-carboxylic acid methyl ester]	5.43%
COC(=O)c1nn(CCc2ccccc2)cc1NC(=O)CCc1ccccc1 [Example 27, 4-[3-phenyl-propionylamino]-1-phenethyl-4H-pyrazole-3-carboxylic acid methyl ester]	5.08%
COC(=O)c1nn(CCc2ccccc2)cc1NC(=O)CNc1ccc(Br)cc1 [Example 29, 4-[2-(4-bromo-phenylamino)-acetylamino]-1-phenethyl-1H-pyrazole-3-carboxylic acid methyl ester]	9.31%
COC(=O)c1nn(CCc2ccccc2)cc1NC(=O)CSc1ccc(Br)cc1 [Example 1, 4-[2-(4-bromo-phenylsulfanyl)-acetylamino]-1-phenethyl-1H-pyrazole-3-carboxylic acid methyl ester]	5.79%
COC(=O)c1nn(C)cc1NC(=O)CSc1ccccc1 [Example 15, 4-[2-phenylsulfanylacetylamino]-1-methyl-1H-pyrazole-3-carboxylic acid methyl ester]	11.3%
O=C(CSc1ccc(Br)cc1)Nc1cn(CCc2ccccc2)nc1CO [Example 26, 2-(4-bromo-phenylsulfanyl)-N-(3-hydroxymethyl-1-phenethyl-4H-pyrazol-4-yl)-acetamide]	7.27%
COCc1nn(CCc2ccccc2)cc1NC(=O)CSc1ccc(Br)cc1 [Example 30, 2-(4-bromo-phenylsulfanyl)-N-(3-methoxymethyl-1-phenethyl-1H-pyrazol-4-yl)-acetamide]	5.22%
COC(=O)c1nn(CCc2ccccc2)cc1NC(=O)COc1ccc(Br)cc1 [Example 28, 4-[2-(4-bromophenoxy)-acetylamino]-1-phenethyl-1H-pyrazole-3-carboxylic acid methyl ester]	3.74%
NC(=O)c1nn(CCc2ccccc2)cc1NC(=O)CSc1ccc(Br)cc1 [Example 25, 4-[2-(4-bromo-phenylsulfanyl)-acetylamino]-1-phenethyl-1H-pyrazole-3-carboxylic acid amide]	6.07%
COC(=O)c1nn(CCc2ccccc2)cc1NC(=O)C(Sc1ccc(Br)cc1)c1ccccc1 (stereo not drawn) [Example 20, 4-[2-(4-bromo-phenylsulfanyl)-2-phenyl-acetylamino]-1-phenethyl-1H-pyrazole-3-carboxylic acid methyl ester]	6.07%
O=C(CSc1ccc(Br)cc1)Nc1cn(CCc2ccccc2)nc1C1=NCCO1 [Example 24, 2-(4-bromo-phenylsulfanyl)-N-[3-(4,5-dihydro-oxazol-2-yl)-1-phenethyl-1H-pyrazol-4-yl]-acetamide]	12.7%
COC(=O)c1cc(NC(=O)CSc2ccccc2)n(C)n1 [Example 22, 1-methyl-5-(2-phenylsulfanyl-acetylamino)-1H-pyrazole-3-carboxylic acid methyl ester]	10.7%
COC(=O)c1nn(CCc2ccccc2)cc1NC(=O)CCSc1ccc(Br)cc1 [Example 18]	8.75%
COC(=O)c1nn(CCc2ccccc2)cc1NC(=O)CSc1ccccn1 [Example 8, 4-[2-(2-pyridylsulfanyl)-acetylamino]-1-phenethyl-1H-pyrazole-3-carboxylic acid methyl ester]	5.65%
COC(=O)c1nn(Cc2ccccc2)cc1NC(=O)CSc1ccccc1 [Example 13, 4-[2-phenylsulfanylacetylamino]-1-benzyl-1H-pyrazole-3-carboxylic acid methyl ester]	9.81%
COC(=O)c1nn(CCc2ccccc2)cc1NC(=O)CSc1ccccc1N [Example 5, 4-[2-(2-amino-phenylsulfanyl)-acetylamino]-1-phenethyl-1H-pyrazole-3-carboxylic acid methyl ester]	6.48%
COC(=O)c1nn(CCc2ccccc2)cc1NC(=O)CSc1ccc(F)cc1 [Example 7, 4-[2-(4-fluoro-phenylsulfanyl)-acetylamino]-1-phenethyl-1H-pyrazole-3-carboxylic acid methyl ester]	6.49%
